These results are taken from patent US12552846B2, “Modified BCL9 mimetic peptides” (Sapience Therapeutics, Inc., priority 2019, dated 2026).

For assay [1], the system named is HL60 promyelocytic leukemia cells. Put plainly: Cytotoxicity assay in HL60 cells (Annexin V FITC / PI flow cytometry). It is filed as cell-based. Particulars: 48 hours, 0-80 μM, % Viability (Annexin V low, PI low). In a few lines:
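HL60 cells at 3.5×10^3/well in RPMI + 1.5% FBS exposed to peptides at 0-80 μM final for 48 h at 37 °C. Viability by flow cytometry after Annexin V-FITC/PI staining, gated on FSC vs SSC. % Viability is the fraction that is Annexin V^low and PI^low.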
(In flow cytometry, cells or beads pass a laser one at a time.)

The subject of a further assay is MCF7 breast cancer cells. The assay is described as follows: MCF7 subcutaneous tumor model, tumor volume. Format: in vivo, NU/J mice. Particulars: for tumor volume relative to vehicle and to peptide control BCL-134: 1 mg/kg or 5 mg/kg s.c. three times weekly for three weeks, dosing from day 14, starting tumor about 340 mm^3, p≤0.0004. As to the method:
In this experiment, we examined the effect of peptide BCL-26 on tumor volume in an MCF7 subcutaneous tumor model. Briefly, 2×10^6 MCF7 breast cancer cells, suspended 1:1 in Matrigel, were implanted via subcutaneous injection into the axilla of NU/J mice. Peptide BCL-26 was administered at a dose of 12.5 mg/kg via subcutaneous injection three times weekly for three weeks. Dosing was initiated on day 2 post tumor inoculation, with an average starting tumor volume of about 25 mm^3.
We also examined the effect of BCL9 mimetic peptides in established tumors. MCF7 cells were implanted into mice as described above. Peptide BCL-87 was administered at a dose of 5 mg/kg via subcutaneous injection three times weekly for three weeks. Dosing was initiated on day 21 post tumor inoculation, with an average starting tumor volume of about 470 mm^3.
We additionally examined the effect of different concentrations of mimetic peptides in established tumors. MCF7 cells were implanted into mice as described above. Peptides BCL-27 and BCL-87 were administered at a dose of 1 mg/kg or 5 mg/kg via subcutaneous injection three times weekly for three weeks. Dosing was initiated on day 14 post tumor inoculation, with an average starting tumor volume of about 340 mm^3.

For assay [2], the system named is MCF-7 breast cancer cells. Put plainly: MTT cell viability / anti-proliferative assay in MCF-7 cells. It is filed as cell-based. Particulars: MCF7 cells, compared to peptide ST-BC1. As to the method:
MCF-7 breast cancer cells set at a density of 2.5×10^4 cells/well in 150 μL of MEM medium+10% fetal bovine serum (FBS) in a 96 well dish. Lyophilized BCL9 peptides were reconstituted at a concentration of 10 mg/mL in 270 mM trehalose buffer and added to each well at a volume of 50 μL to a final concentration range of 2.5-40 μM. Cells were incubated with BCL9 peptides for 96 hours at 37° C.
Cell viability was quantified by spectrophotometry using Roche MTT cell proliferation assay kit according to manufacturer's instructions. Briefly, cells were washed with PBS, and incubated in fresh MEM medium with 10% FBS, 1% penicillin/streptomycin, and 1% non-essential amino acids, plus 10 μL MTT reagent at 37° C. for 4 hours. After 4 hours, 100 μL of solubilization solution was added, and cells were incubated overnight at 37° C. and 5% carbon dioxide. Absorbance was measured at OD570 nm with a reference of OD650 nm. The degree of absorption is proportional to the number of living cells. Percentage of absorbance relative to untreated controls was quantified and presented as % Cell Viability.
In functional assays, EC50 is the concentration that reduces a biological response by 50% of its maximum. In the case of BLC9 peptides, EC50 is measured as the concentration that reduces cell viability by 50% of its maximum. EC50 can be calculated by any number of means known in the art.

Square brackets hold non-standard residues; d marks the D form. Peptide text beside a SMILES is read from it.

One may read the EC50 as the concentration giving half of the maximal effect. Higher therefore signals lower potency in that assay. In turn, `CSCC[C@@H](NC(=O)[C@@H](CC(C)C)NC(=O)[C@H](N)Cc1ccccc1)C(=O)N[C@H](CCCNC(=N)N)C(=O)N[C@H](CCC(N)=O)C(=O)N[C@H](CC(C)C)C(=O)N[C@H](CC(=O)O)C(=O)N[C@H](CCCNC(=N)N)C(=O)N[C@H](CC(C)C)C(=O)N[C@@H](C(=O)N[C@H](CCC(N)=O)C(=O)N[C@H](CC(C)C)C(=O)N[C@H](C)C(=O)N[C@H](CCCCN)C(=O)N[C@H](CC(C)C)C(=O)N[C@@H](C(=O)N1CCC[C@@H]1C(=O)N[C@@H](C(=O)O)C(C)C)[C@H](C)O)[C@H](C)O` [BCL-26, FLMRQLDRLTQLAKLTPV] (H-[dF][dL][dM][dR][dQ][dL][dD][dR][dL][dT][dQ][dL][dA][dK][dL][dT][dP][dV]-OH; N-terminus and C-terminus assumed) yielded a 50% effective concentration (EC50) in assay [1] of more than 10 µM. Moreover, the “tumor volume relative to vehicle” value in the assay on MCF7 breast cancer cells (12.5 mg/kg s.c. three times weekly for three weeks, dosing from day 2, starting tumor about 25 mm^3, p<0.0001) is given as “significantly reduced tumor volume”.

Molecule `CC(C)C[C@@H](NC(=O)[C@@H](Cc1c[nH]c2ccccc12)NC(=O)[C@H](N)Cc1c[nH]c2ccccc12)C(=O)N[C@H](C)C(=O)N[C@H](CCCNC(=N)N)C(=O)N[C@H](CCC(N)=O)C(=O)N[C@H](CC(C)C)C(=O)N[C@H](C)C(=O)N[C@H](CCCNC(=N)N)C(=O)N[C@H](CC(C)C)C(=O)N[C@H](C)C(=O)N[C@H](CCC(N)=O)C(=O)N[C@H](CC(C)C)C(=O)N[C@H](C)C(=O)N[C@H](CCCCN)C(=O)N[C@H](CC(C)C)C(=O)N[C@@H](C(=O)N1CCC[C@@H]1C(=O)N[C@@H](C(=O)O)C(C)C)[C@H](C)O` [BCL-27, WWLARQLARLAQLAKLTPV] (H-[dW][dW][dL][dA][dR][dQ][dL][dA][dR][dL][dA][dQ][dL][dA][dK][dL][dT][dP][dV]-OH; N-terminus and C-terminus assumed) gave an EC50 in assay [1] of 2 to 10 µM. Besides, the “tumor volume relative to vehicle and to peptide control BCL-134” value in the assay on MCF7 breast cancer cells was “significantly reduced tumor volume”.

For `CC(C)C[C@@H](NC(=O)[C@@H](CCCNC(=N)N)NC(=O)[C@@H](C)NC(=O)[C@@H](CC(C)C)NC(=O)[C@@H](CCC(N)=O)NC(=O)[C@@H](CCCNC(=N)N)NC(=O)[C@@H](C)NC(=O)[C@@H](CC(C)C)NC(=O)[C@@H](Cc1c[nH]c2ccccc12)NC(=O)[C@@H](Cc1c[nH]c2ccccc12)NC(=O)CNC(=O)[C@@H](CCCNC(=N)N)NC(=O)CNC(=O)[C@@H](CC(=O)O)NC(=O)[C@@H](CO)NC(=O)[C@H]1CCCN1)C(=O)N[C@H](C)C(=O)N[C@H](CCC(N)=O)C(=O)N[C@H](CC(C)C)C(=O)N[C@H](C)C(=O)N[C@H](CCCCN)C(=O)N[C@H](CC(C)C)C(=O)N[C@@H](C(=O)N1CCC[C@@H]1C(=O)N[C@@H](C(=O)O)C(C)C)[C@H](C)O` [BCL-87] (H-[dP][dS][dD]G[dR]G[dW][dW][dL][dA][dR][dQ][dL][dA][dR][dL][dA][dQ][dL][dA][dK][dL][dT][dP][dV]-OH; N-terminus and C-terminus assumed), the half-maximal effective concentration (EC50) in assay [1] fell in the range of 2 to 10 µM. For the same molecule, the “tumor volume relative to vehicle and to peptide control BCL-134” value with MCF7 breast cancer cells is “significantly reduced tumor volume”. In addition, in the assay with MCF7 breast cancer cells (5 mg/kg s.c. three times weekly for three weeks, dosing from day 21, starting tumor about 470 mm^3, p<0.005), the “tumor volume relative to vehicle” value is reported as “significantly reduced tumor volume”.

Consider “YGRKKRRQRRRLSQEQLEHRERSLQTLRDIQRMLF [BCL-21, TAT cell-penetrating region plus native BCL9 HD2 domain]”, for which the anti-proliferative activity result in assay [2] is reported as “inefficient at inhibiting cell proliferation”.
